How the values were obtained:
[1] = test system: focal seizures in hippocampal kindled rats; assay: Hippocampal kindling model; assay type: in vivo, Sprague-Dawley rats; parameters: key to Racine Seizure Score ± SEM: Racine stage 1 to 5; conditions: for Afterdischarge Duration ± SEM / Racine Seizure Score ± SEM: rats, 100 mg/kg, n=7
Text: Hippocampal Kindling Model
The hippocampal kindling model is an experimental seizure model used to simulate focal seizures. This model evaluates the capacity of a compound to affect both the expression and acquisition of focal seizures. In addition, kindled seizures provide a methodology for studying complex brain networks that may contribute to the spread and generalizations of seizures from a focus. The hippocampal kindling model has the advantage of being one of the only kindling models that can evaluate the temporal effects of an agent in a single animal. For this assessment, bipolar electrodes are surgically implanted in the ventral hippocampus of adult male Sprague-Dawley rats (275-300 g) under ketamine-xylazine anesthesia. Following a one-week recovery period, stage five behavioral seizures are induced by stimulating the rat 12 times per day with 50 Hz, 10 s train of 1 ms biphasic 200 μA pulses delivered every 30 min for six hours on alternating days. After five stimulus days, the animal has had 60 stimulations. A drug free control period with supramaximal stimulations is used to verify the stability of a stage five generalized seizure before the anticonvulsant activity of a drug is measured.
This screen is used to measure the capacity of the drug to prevent the expression of focal seizures. […] The animal is exposed to an initial stimulation of 20 μA; the stimulation is increased in 10 μA increments every one-two minutes until an afterdischarge is recorded. After the stability of the stage five seizure is established, the drug candidate is administered to the rats via intraperitoneal injection 15 minutes after the last control stimulation. Starting with the first dose, the anticonvulsant activity of the test agent is measured every thirty minutes for four hours. Following each stimulation, Racine seizure scores and afterdischarge durations are compared to control values to quantify the anti-convulsant activity of the agent. The Racine seizure scores vary from stage 1 to 5. The stages are characterized according to the following criteria: Stage 1—mouth and facial clonus, Stage 2—stage 1 and head nodding, Stage 3—stage 2 and forelimb clonus, Stage 4—stage 3 and rearing, Stage 5—stage 4 and repeated rearing and falling. Since a single animal is used, each rat serves as its own control.
4,4′-Thiodianiline was used in the rat hippocampal kindled rats to screen to measure its anticonvulsant potential. Doses of 12.5, 25, 50 and 100 mg/kg were evaluated at a minimum of seven time points (n=7 for each dose and each time point). […] After oral administration of the test compound stimulation, the Racine seizure scores and afterdischarge durations were measured and are shown below. The Racine seizure scores dropped from between a stage 4 and stage 5 seizure for control measurements to between a stage 1 and stage 2 seizure after treatment with 4,4′-thiodianiline.

[2] = test system: MES-induced seizure; assay: Maximal Electroshock Seizure (MES) test in rats, oral administration; assay type: in vivo; conditions: for Percentage of rats in which the test compound prevented MES-induced seizure: 30 mg/kg oral; for Time to Peak Effect: MES test
Text: (§1) The Maximal Electroshock Seizure (MES) or Maximal Seizure Pattern Test
(§2) The MES is an experimental model for generalized tonic-clonic seizures that identifies compounds that prevent seizure spread. The MES model is highly reproducible and has a consistent endpoint. An advantage of this model is that the behavioral and electrographic seizures are consistent with those observed in humans.
(§3) In the MES test, the animal receives an electrical stimulus, 0.2 seconds in duration, via corneal electrodes primed with an electrolyte solution containing an anesthetic agent. The 0.2 second stimulation is generated with 150 mA in rats and 50 mA in mice at 60 Hz. […] In rats, the compound is administered orally, while mice receive the agent via intraperitoneal injection. The test endpoint, electrogenic seizure, is manifested as hindlimb tonic extension.
A full dose-response curve was also generated in rats to determine the ED50 value (n=8 at each time point). […] The ED50 of 4,4′-thiodianiline was evaluated in both rats and mice.

[3] = test system: MES-induced seizure; assay: Maximal Electroshock Seizure (MES) test in mice, intraperitoneal administration; assay type: in vivo
Text: as §1, §2, §3

[4] = test system: 6 Hz seizures; assay: 6 Hz kindling model; assay type: in vivo, mice
Procedure: The 6 Hz kindling model is another experimental seizure model that effectively detects compounds with anti-seizure activity. This screen is used to evaluate the ability of a compound to prevent the acquisition of focal seizures; in particular, the capacity of a compound to prevent the development of seizures induced by a low-frequency (6 Hz), long duration (three seconds) stimulus in electrode […] is evaluated. Several of the most promising compounds were evaluated in this screen to further characterize their anti-seizure activity.
In the 6 Hz kindling test, mice are implanted with corneal electrodes. The test compound is administered (i.p.) to the animal at 0.25, 0.5, 1, 2, or 4 hours prior seizure induction. The seizure is initiated by delivering a current (32 mA at 6 Hz for three seconds) to the animal through the corneal electrodes. The resulting psychomotor seizure is usually characterized by a minimal clonic phase followed by stereotyped, automatistic behaviors. This response is analogous to the aura of human patients with partial seizures.

[5] = test system: mice; assay: Minimal neurotoxicity in mice, rotorod test
Procedure: In mice, the test compound is administered at doses of 30, and 100 mg/kg prior to evaluation in the toxicity screens. The mice are tested at 0.5 hours and 4 hours after intraperitoneal administration of the test compound.
Toxicity in mice weighing between 18 and 25.5 g is assessed using the standardized rotorod test [9]. For each compound tested, a minimum of 18 animals are evaluated for neurotoxicity. Control mice can maintain their equilibrium for an extended period of time when they are placed on a 6-rpm rotation rod. Neurologically impaired animals cannot maintain equilibrium for one minute in each of three successive trials.

[6] = test system: rats; assay: Minimal neurotoxicity in rats, positional sense and gait and stance tests; assay type: in vivo
Text: If the rat experiences neurological toxicity, it will not be able to quickly lift its leg quickly back to a normal position.
In the gait and stance test, neurotoxicity is indicated by a circular or zigzag gait after administration of the test compound. In addition, ataxia, abnormal spread of the legs, abnormal posture, tremor hyperactivity, lack of exploratory behavior, somnolence, stupor, or catalepsy can indicate neurotoxicity.

[7] = 30 mg/kg i.p., 0.5 h after administration
[8] = 30 mg/kg i.p., 4.0 h after administration
[9] = 100 mg/kg i.p., 0.5 h after administration
[10] = 100 mg/kg i.p., 4.0 h after administration
[11] = 300 mg/kg i.p., 0.5 h after administration
[12] = 300 mg/kg i.p., 4.0 h after administration
[13] = 30 mg/kg i.p., 0.25 h after administration
[14] = 30 mg/kg i.p., 1.0 h after administration
[15] = 30 mg/kg i.p., 2.0 h after administration
[16] = 100 mg/kg i.p., 0.25 h after administration
[17] = 100 mg/kg i.p., 1.0 h after administration
[18] = 100 mg/kg i.p., 2.0 h after administration

## Nc1ccc(Oc2ccc(N)cc2)cc1 [4,4′-diaminodiphenyl ether]
[1]; hippocampal kindling model, not as effective as 4,4′-thiodianiline
  expression of fully kindled seizures: had the capacity to block the expression of fully kindled seizures
[2]; 0.25 h after administration
  Percentage of rats in which the test compound prevented MES-induced seizure: 100%
[2]; 0.5 h after administration
  Percentage of rats in which the test compound prevented MES-induced seizure: 100%
[2]; 1.0 h after administration
  Percentage of rats in which the test compound prevented MES-induced seizure: 75%
[2]; 2.0 h after administration
  Percentage of rats in which the test compound prevented MES-induced seizure: 75%
[2]; 4.0 h after administration
  Percentage of rats in which the test compound prevented MES-induced seizure: 100%
[2]; rat, oral administration
  Time to Peak Effect: 6 h
[2]; rat, oral administration, at the time of peak effect, n=8
  ED50 required to inhibit MES-induced seizure: 5.24 ± 4.67 mg/kg
[3]; [7]
  Percentage of mice in which the test compound prevented MES-induced seizure: 0%
[3]; [8]
  Percentage of mice in which the test compound prevented MES-induced seizure: 0%
[3]; [9]
  Percentage of mice in which the test compound prevented MES-induced seizure: 100%
[3]; [10]
  Percentage of mice in which the test compound prevented MES-induced seizure: 100%
[3]; [11]
  Percentage of mice in which the test compound prevented MES-induced seizure: 100%
[3]; [12]
  Percentage of mice in which the test compound prevented MES-induced seizure: 100%
[4]; [13]
  Percentage of mice in which the test compound prevented seizure in the 6 Hz test: 0%
[4]; [7]
  Percentage of mice in which the test compound prevented seizure in the 6 Hz test: 50%
[4]; [14]
  Percentage of mice in which the test compound prevented seizure in the 6 Hz test: 25%
[4]; [15]
  Percentage of mice in which the test compound prevented seizure in the 6 Hz test: 25%
[4]; [16]
  Percentage of mice in which the test compound prevented seizure in the 6 Hz test: 100%
[4]; [9]
  Percentage of mice in which the test compound prevented seizure in the 6 Hz test: 100%
[4]; [17]
  Percentage of mice in which the test compound prevented seizure in the 6 Hz test: 100%
[4]; [18]
  Percentage of mice in which the test compound prevented seizure in the 6 Hz test: 100%
[4]; [10]
  Percentage of mice in which the test compound prevented seizure in the 6 Hz test: 0%
[5]; 100 mg/kg
  toxicity: no significant toxicity
[6]; 250 mg/kg
  toxicity: no significant toxicity

## Nc1ccc(Sc2ccc(N)cc2)cc1 [4,4′-thiodianiline]
[1]; Rattus norvegicus, hippocampal kindled rats, from doses of 12.5, 25, 50 and 100 mg/kg, read-out: ED50, dose required to prevent the expression of focal seizures
  ED50: 51.4 mg/kg
[1]; 15 min
  Afterdischarge Duration ± SEM: 19.14 ± 9.58 s
  Racine Seizure Score ± SEM: 1.43 ± 0.81
[1]; 45 min
  Afterdischarge Duration ± SEM: 25.29 ± 13.71 s
  Racine Seizure Score ± SEM: 1.29 ± 0.84
[1]; 75 min
  Afterdischarge Duration ± SEM: 24.86 ± 11.43 s
  Racine Seizure Score ± SEM: 0.71 ± 0.57
[1]; 105 min
  Afterdischarge Duration ± SEM: 33.29 ± 14.17 s
  Racine Seizure Score ± SEM: 1.29 ± 0.64
[1]; 135 min
  Afterdischarge Duration ± SEM: 34.71 ± 14.35 s
  Racine Seizure Score ± SEM: 1.57 ± 0.81
[1]; 165 min
  Afterdischarge Duration ± SEM: 57.43 ± 18.17 s
  Racine Seizure Score ± SEM: 1.57 ± 0.65
[1]; 195 min
  Afterdischarge Duration ± SEM: 55.29 ± 18.19 s
  Racine Seizure Score ± SEM: 1.57 ± 0.69
[1]; 225 min
  Afterdischarge Duration ± SEM: 71.29 ± 18.99 s
  Racine Seizure Score ± SEM: 1.86 ± 0.70
[1]; 255 min
  Afterdischarge Duration ± SEM: 65.43 ± 17.91 s
  Racine Seizure Score ± SEM: 1.86 ± 0.63
[2]; 0.25 h after administration
  Percentage of rats in which the test compound prevented MES-induced seizure: 100%
[2]; 0.5 h after administration
  Percentage of rats in which the test compound prevented MES-induced seizure: 100%
[2]; 1.0 h after administration
  Percentage of rats in which the test compound prevented MES-induced seizure: 100%
[2]; 2.0 h after administration
  Percentage of rats in which the test compound prevented MES-induced seizure: 100%
[2]; 4.0 h after administration
  Percentage of rats in which the test compound prevented MES-induced seizure: 100%
[2]; Rattus norvegicus, po, read-out: ED50 required to inhibit MES-induced seizure
  ED50: 6.6 ± 5.07 mg/kg
[2]; rat, oral administration
  Time to Peak Effect: 1 h
[3]; [7]
  Percentage of mice in which the test compound prevented MES-induced seizure: 0%
[3]; [8]
  Percentage of mice in which the test compound prevented MES-induced seizure: 0%
[3]; [9]
  Percentage of mice in which the test compound prevented MES-induced seizure: 66%
[3]; [10]
  Percentage of mice in which the test compound prevented MES-induced seizure: 100%
[3]; [11]
  Percentage of mice in which the test compound prevented MES-induced seizure: 100%
[3]; [12]
  Percentage of mice in which the test compound prevented MES-induced seizure: 100%
[3]; Mus musculus, ip, 0.5 h, read-out: ED50 (MES)
  ED50: 53.4 ± 14.9 mg/kg
[4]; [13]
  Percentage of mice in which the test compound prevented seizure in the 6 Hz test: 0%
[4]; [7]
  Percentage of mice in which the test compound prevented seizure in the 6 Hz test: 25%
[4]; [14]
  Percentage of mice in which the test compound prevented seizure in the 6 Hz test: 25%
[4]; [15]
  Percentage of mice in which the test compound prevented seizure in the 6 Hz test: 25%
[4]; 80 mg/kg i.p., 0.25 h after administration
  Percentage of mice in which the test compound prevented seizure in the 6 Hz test: 100%
[4]; 80 mg/kg i.p., 0.5 h after administration
  Percentage of mice in which the test compound prevented seizure in the 6 Hz test: 100%
[4]; 80 mg/kg i.p., 1.0 h after administration
  Percentage of mice in which the test compound prevented seizure in the 6 Hz test: 100%
[4]; 80 mg/kg i.p., 2.0 h after administration
  Percentage of mice in which the test compound prevented seizure in the 6 Hz test: 75%
[4]; 80 mg/kg i.p., 4.0 h after administration
  Percentage of mice in which the test compound prevented seizure in the 6 Hz test: 0%
[4]; [16]
  Percentage of mice in which the test compound prevented seizure in the 6 Hz test: 100%
[4]; [9]
  Percentage of mice in which the test compound prevented seizure in the 6 Hz test: 100%
[4]; [17]
  Percentage of mice in which the test compound prevented seizure in the 6 Hz test: 100%
[4]; [18]
  Percentage of mice in which the test compound prevented seizure in the 6 Hz test: 100%
[4]; [10]
  Percentage of mice in which the test compound prevented seizure in the 6 Hz test: 0%
[4]; Mus musculus, ip, read-out: ED50 (6 Hz seizures)
  ED50: 30 to 80 mg/kg
[5]; up to four hours after dosing, doses as high as 300 mg/kg
  acute neurotoxicity as measured by the rotorod test: No acute neurotoxicity was observed
[6]; 1 hour (time to peak effect) after oral administration
  ED50 for toxicity relative to ED50 for anti-convulsant activity: ~60 times
